Where a name gives a salt, the structure may show the parent alone. Read-outs that look alike come from different tables or passages of the source.

The target of assay [1] is T1, SARS-CoV-2 PLpro (nsp3 1564–1878) (Severe acute respiratory syndrome coronavirus 2, UniProt P0DTD1). Description: biochemical. On the set-up: FRET-quenched peptide (Pro3) cleavage by PLpro, 10 min pre-incubation, slope over 20 min, normalised to no-compound control. Conditions: high concentration screen, read-out: % of control remaining.
Assay [2] concerns the target T1, SARS-CoV-2 PLpro (nsp3 1564–1878). Description: biochemical. On the set-up: FRET-quenched peptide (Pro3) cleavage by PLpro, 10 min pre-incubation, slope over 20 min, normalised to no-compound control. Conditions: low concentration screen, read-out: % of control remaining.

In the case of `COc1cccc(NC(=O)/C=C/c2ccc(Cl)cc2)c1` [SB-366791], the remaining activity at 3.75 µM in assay [1] (Well no.=1260) was 103%. For the same compound, in assay [2] (Well no.=1260), the remaining activity at 1.25 µM came out at 104%.
On to `Cc1cc(NC(=O)Nc2ccc(N(C)C)cc2)c2cc(F)cc(F)c2n1` [SB-408124 (Hydrochloride)], for which the remaining activity at 3.75 µM in assay [1] (Well no.=6939) stood at 98.8%. Further, the remaining activity at 1.25 µM in assay [2] (Well no.=6939) came out at 99.4%.
On to `Cc1cc(NC(=O)Nc2ccc(N(C)C)cc2)c2cc(F)cc(F)c2n1` [SB-408124], for which the figures for the remaining activity at 3.75 µM in assay [1] (Well no.=4955) and in assay [1] (Well no.=8481) were 94.9% and 102%, respectively. The remaining activity at 1.25 µM in assay [2] (Well no.=4955) was determined as 90.2%; in assay [2] (Well no.=8481), 104%.
Take `Cc1cccc(-c2[nH]c(C(C)(C)C)nc2-c2ccc3c(c2)OCO3)n1` [SB-505124]: in assay [1] (Well no.=4814), the remaining activity at 3.75 µM was found to be 95.6%. Besides, in assay [2] (Well no.=4814), the remaining activity at 1.25 µM amounted to 101%.
Regarding `Cc1nc(C(=O)N2CCC[C@H]2Cc2nnc(-c3ccccc3)o2)c(-c2ccccc2F)s1` [SB-674042], the remaining activity at 3.75 µM in assay [1] (Well no.=7083) was 98.9%. Moreover, in assay [2] (Well no.=7083), the remaining activity at 1.25 µM was found to be 102%.
For `O=S(=O)(c1ccccc1)c1cnc2c(N3CCNCC3)cccc2c1` [SB-742457], the remaining activity at 3.75 µM in assay [1] (Well no.=4839) came to 104%; in assay [1] (Well no.=7183), 91.3%. Moreover, the remaining activity at 1.25 µM in assay [2] (Well no.=4839) came to 98.1%; in assay [2] (Well no.=7183) it was 94.6%.
As for `Cc1cc(/C(O)=C2\C(=O)C(=O)N(CCCN3CCOCC3)C2c2ccncc2)ccc1OCc1ccccc1` (stereo not shown) [SBC-115076], in assay [1] (Well no.=7844), the remaining activity at 3.75 µM worked out at 95.8%. The remaining activity at 1.25 µM in assay [2] (Well no.=7844) amounted to 101%.
Regarding `CNC(=O)c1ccccc1Oc1nc(Nc2cc(OC)c(OC)c(OC)c2)ncc1Br` [SBI-0206965], the remaining activity at 3.75 µM in assay [1] (Well no.=7028) is 103%. The remaining activity at 1.25 µM in assay [2] (Well no.=7028) came to 105%.
In the case of `O=C(c1ccccc1)c1ccc2nc(NC(=O)c3csc(C4CCN(c5ncnc6ccsc56)CC4)n3)[nH]c2c1` [SC75741], the remaining activity at 3.75 µM in assay [1] (Well no.=6922) stood at 101%. The remaining activity at 1.25 µM in assay [2] (Well no.=6922) turned out to be 100%.
For `CC(=O)NNC(=O)N1Cc2ccccc2Oc2ccc(Cl)cc21` [SC 19220], the remaining activity at 3.75 µM in assay [1] (Well no.=1408) was 100%. Moreover, the remaining activity at 1.25 µM in assay [2] (Well no.=1408) turned out to be 101%.
Consider `NS(=O)(=O)c1ccc(-n2nc(C(F)(F)F)cc2-c2ccc(Cl)cc2)cc1` [SC-236], for which the remaining activity at 3.75 µM in assay [1] (Well no.=5773) was found to be 98%. Moreover, the remaining activity at 1.25 µM in assay [2] (Well no.=5773) amounted to 110%.
`Cc1nc(-c2ccccc2)c(-c2ccncc2)o1` [SC-68376]: the remaining activity at 3.75 µM in assay [1] (Well no.=2650) is 102%. For the same compound, the remaining activity at 1.25 µM in assay [2] (Well no.=2650) was determined as 96.3%.
As to `CN1CCc2cc(Cl)c(O)cc2[C@@H](c2ccccc2)C1` [SCH 23390 (hydrochloride)], in assay [1] (Well no.=7813), the remaining activity at 3.75 µM was determined as 102%. For the same compound, the remaining activity at 1.25 µM in assay [2] (Well no.=7813) is 109%.
In the case of `Nc1nc2c(cnn2CCc2ccccc2)c2nc(-c3ccco3)nn12` [SCH 58261], the remaining activity at 3.75 µM in assay [1] (Well no.=7907) came out at 99.3%; in assay [1] (Well no.=8309), 97.1%. For the same compound, the remaining activity at 1.25 µM in assay [2] (Well no.=7907) came out at 95.3%; in assay [2] (Well no.=8309) it was 98.9%.
For `CC[C@@H](Nc1c(Nc2cccc(C(=O)N(C)C)c2O)c(=O)c1=O)c1ccc(C)o1` [SCH 527123], the remaining activity at 3.75 µM in assay [1] (Well no.=7087) turned out to be 97.3%. In addition, the remaining activity at 1.25 µM in assay [2] (Well no.=7087) stood at 102%.
Turning to `CC[C@H]1CN(c2nc(N)c(C(N)=O)nc2Cl)CCN1C1CCN(Cc2ccc(Cl)cc2)CC1` [SCH 546738], the remaining activity at 3.75 µM in assay [1] (Well no.=8659) is 106%. The remaining activity at 1.25 µM in assay [2] (Well no.=8659) was determined as 103%.
Regarding `CN=c1nc(-c2ccccc2)n(-c2ccccc2)s1` [SCH-202676 hydrobromide], the remaining activity at 3.75 µM in assay [1] (Well no.=1314) was 97.4%. In addition, the remaining activity at 1.25 µM in assay [2] (Well no.=1314) came to 98.7%.
In the case of `COc1ccc(CCCn2ncc3c2nc(N)n2nc(-c4ccco4)nc32)cc1` [SCH-442416], the remaining activity at 3.75 µM in assay [1] (Well no.=5870) amounted to 97.4%. In addition, the remaining activity at 1.25 µM in assay [2] (Well no.=5870) came out at 98.1%.
Regarding `NC(=O)c1ccc2[nH]ccc2c1` [SD169], the remaining activity at 3.75 µM in assay [1] (Well no.=2797) is 106%. Besides, the remaining activity at 1.25 µM in assay [2] (Well no.=2797) was found to be 106%.
`Fc1ccc(Cl)cc1-c1nc(Nc2ccncc2)c2nccnc2n1` [SD 208 - 2-(5-Chloro-2-fluorophenyl)-4-[(4-pyridyl)amino]pteridine]: in assay [1] (Well no.=2680), the remaining activity at 3.75 µM was 99.7%. For the same compound, in assay [2] (Well no.=2680), the remaining activity at 1.25 µM was determined as 97.3%.
As for `O=C(CO)N1CCC(c2n[nH]c(-c3ccc(Cl)cc3)c2-c2ccncn2)CC1` [SD-06], the remaining activity at 3.75 µM in assay [1] (Well no.=2897) was 97%. In addition, in assay [2] (Well no.=2897), the remaining activity at 1.25 µM came out at 99.5%.
For the compound `CCN(CC)CCOC(=O)c1cc(Cl)c(N)cc1OC` [SDZ-205,557 hydrochloride], the remaining activity at 3.75 µM in assay [1] (Well no.=1327) stood at 100%. For the same compound, the remaining activity at 1.25 µM in assay [2] (Well no.=1327) is 101%.
With `Cc1cc(Nc2ccc(NC(=O)c3ccc(Nc4ccnc5ccccc45)cc3)cc2)nc(N)n1` [SGI-1027], in assay [1] (Well no.=5518), the remaining activity at 3.75 µM is 102%. In addition, the remaining activity at 1.25 µM in assay [2] (Well no.=5518) turned out to be 105%.
In the case of `CN1CCC(CNc2ccc3ncc(-c4cccc(OC(F)(F)F)c4)n3n2)CC1` [SGI-1776 free base], in assay [1] (Well no.=4818), the remaining activity at 3.75 µM was found to be 86.2%. For the same compound, the remaining activity at 1.25 µM in assay [2] (Well no.=4818) amounted to 88.4%.
For `Cn1cc(-c2ccc3nnc(Sc4ccc5ncccc5c4)n3n2)cn1` [SGX-523], the remaining activity at 3.75 µM in assay [1] (Well no.=4665) is 106%. Moreover, the remaining activity at 1.25 µM in assay [2] (Well no.=4665) came to 104%.
Consider `Cc1ccc(O)c(N=Nc2ccccc2)n1` [SIB 1757], for which the remaining activity at 3.75 µM in assay [1] (Well no.=1371) was determined as 102%. The remaining activity at 1.25 µM in assay [2] (Well no.=1371) was found to be 99.7%.
Regarding `Cc1cccc(/C=C/c2ccccc2)n1` [SIB 1893], the remaining activity at 3.75 µM in assay [1] (Well no.=1419) was 95.7%. Moreover, the remaining activity at 1.25 µM in assay [2] (Well no.=1419) is 96.6%.
As for `CCOc1cc(/C=C2/C(=O)N(c3ccccc3)N=C2C)cc(Cl)c1OCC(=O)OC` [SJ-172550], the remaining activity at 3.75 µM in assay [1] (Well no.=6354) turned out to be 90.9%. Moreover, the remaining activity at 1.25 µM in assay [2] (Well no.=6354) was found to be 91.1%.
On to `CN1CCc2cc(O)c(O)cc2C(c2ccccc2)C1` (stereo not shown) [SKF 75670 hydrobromide], for which, in assay [1] (Well no.=1360), the remaining activity at 3.75 µM amounted to 105%. Further, the remaining activity at 1.25 µM in assay [2] (Well no.=1360) amounted to 103%.
On to `CN1CCc2c(cc(O)c(O)c2Cl)C(c2cccc(Cl)c2)C1` (stereo not shown) [SKF 83565 hydrobromide], for which the remaining activity at 3.75 µM in assay [1] (Well no.=1504) was 97.3%. The remaining activity at 1.25 µM in assay [2] (Well no.=1504) came out at 94.9%.
Consider `Cc1cccc(C2CN(C)CCc3c2cc(O)c(O)c3Cl)c1` (stereo not shown) [SKF 83959 hydrobromide], for which, in assay [1] (Well no.=1264), the remaining activity at 3.75 µM came to 108%. Moreover, in assay [2] (Well no.=1264), the remaining activity at 1.25 µM worked out at 106%.
In the case of `CN1CCc2cccc(Cl)c2CC1` [SKF 86466], in assay [1] (Well no.=1214), the remaining activity at 3.75 µM amounted to 97.9%. The remaining activity at 1.25 µM in assay [2] (Well no.=1214) came out at 101%.
